Test results reported in PubChem BioAssay AID256 (DTP/NCI, 2004).
Several values for one entry are separate records, joined by “and”; a condition that tells them apart may be missing. Equal entries are not always repeated. Toxic doses and inconclusive results are not listed. Rule for the calls: active = survival T/C of 150% or more; inactive = T/C below 125% in these data.

System: CD2F1 mice, L1210 leukemia ip, survival T/C
Test: NCI In Vivo Anticancer Drug Screen. Data for tumor model L1210 Leukemia (intraperitoneal) in CD2F1 (CDF1) mice
Details: higher = longer survival
Method in brief: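 Mice carrying a transplanted tumor received test compound or vehicle alone. The value is the measurement in the treated group divided by that in the vehicle-treated control group.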

[1] = endpoint: mean survival time, dose: 100.0 mg/kg/injection, schedule: Q04DX003 (ip), vehicle: saline
[2] = endpoint: mean survival time, dose: 200.0 mg/kg/injection, schedule: Q04DX003 (ip), vehicle: saline
[3] = endpoint: mean survival time, dose: 400.0 mg/kg/injection, schedule: Q04DX003 (ip), vehicle: saline
[4] = endpoint: mean survival time, dose: 50.0 mg/kg/injection, schedule: Q01DX009 (ip), vehicle: saline with Tween-80
[5] = endpoint: mean survival time, dose: 100.0 mg/kg/injection, schedule: Q01DX009 (ip), vehicle: saline with Tween-80
[6] = endpoint: mean survival time, dose: 100.0 mg/kg/injection, schedule: Q04DX003 (ip), vehicle: saline with Tween-80
[7] = endpoint: mean survival time, dose: 200.0 mg/kg/injection, schedule: Q01DX009 (ip), vehicle: saline with Tween-80
[8] = endpoint: mean survival time, dose: 200.0 mg/kg/injection, schedule: Q04DX003 (ip), vehicle: saline with Tween-80
[9] = endpoint: mean survival time, dose: 100.0 mg/kg/injection, schedule: Q01DX001 (ip), vehicle: saline
[10] = endpoint: mean survival time, dose: 200.0 mg/kg/injection, schedule: Q01DX001 (ip), vehicle: saline
[11] = endpoint: mean survival time, dose: 400.0 mg/kg/injection, schedule: Q01DX001 (ip), vehicle: saline
[12] = endpoint: mean survival time, dose: 37.5 mg/kg/injection, schedule: Q01DX009 (ip), vehicle: saline
[13] = endpoint: mean survival time, dose: 100.0 mg/kg/injection, schedule: Q01DX001 (ip), vehicle: saline with Tween-80
[14] = endpoint: mean survival time, dose: 200.0 mg/kg/injection, schedule: Q01DX001 (ip), vehicle: saline with Tween-80
[15] = endpoint: mean survival time, dose: 400.0 mg/kg/injection, schedule: Q01DX001 (ip), vehicle: saline with Tween-80
[16] = endpoint: mean survival time, dose: 50.0 mg/kg/injection, schedule: Q01DX009 (ip), vehicle: saline
[17] = endpoint: mean survival time, dose: 400.0 mg/kg/injection, schedule: Q04DX003 (ip), vehicle: saline with Tween-80
[18] = endpoint: mean survival time, dose: 400.0 mg/kg/injection, schedule: Q01DX009 (ip), vehicle: saline with Tween-80
[19] = endpoint: mean survival time, dose: 50.0 mg/kg/injection, schedule: Q01DX009 (ip), vehicle: Klucel (hydroxypropylcellulose) (HPC)
[20] = endpoint: mean survival time, dose: 100.0 mg/kg/injection, schedule: Q01DX009 (ip), vehicle: Klucel (hydroxypropylcellulose) (HPC)
[21] = endpoint: mean survival time, dose: 200.0 mg/kg/injection, schedule: Q01DX009 (ip), vehicle: Klucel (hydroxypropylcellulose) (HPC)

Measured: T/C

O=C(O)C/[N+]([O-])=N\O
inactive: [1] 96 % of control | [2] 102 % of control | [3] 105 % of control

C/C(=N\NC(N)=O)C(F)(F)F
inactive: [4] 101 % of control | [5] 102 % of control | [6] 97 % of control | [7] 102 % of control | [8] 108 % of control

NC(N)=NCCCC(N=Cc1ccccc1)C(=O)O (stereo not given)
inactive: [9] 102 % of control | [10] 102 % of control | [11] 90 % of control

NCCCCC(N)C(=O)O (stereo not given)
inactive: endpoint: median survival time, dose: 3.13 mg/kg/injection, schedule: Q04DX002 (ip), vehicle: saline 100 % of control | endpoint: median survival time, dose: 6.25 mg/kg/injection, schedule: Q04DX002 (ip), vehicle: saline 94 % of control | endpoint: median survival time, dose: 25.0 mg/kg/injection, schedule: Q04DX002 (ip), vehicle: saline 105 % of control | endpoint: median survival time, dose: 50.0 mg/kg/injection, schedule: Q04DX002 (ip), vehicle: saline 117 % of control

COC(=O)NCCNC(=O)OC
inactive: [9] 98 % of control | [10] 98 % of control | [11] 101 % of control

NCCCNC/C=C/CNCCCN
inactive: [12] 98 % of control | endpoint: mean survival time, dose: 75.0 mg/kg/injection, schedule: Q01DX009 (ip), vehicle: saline 101 % of control | endpoint: mean survival time, dose: 150.0 mg/kg/injection, schedule: Q01DX009 (ip), vehicle: saline 101 % of control

CCCCC(N)C(=O)O (stereo not given)
inactive: [13] 104 % of control | [1] 105 % of control | [14] 104 % of control | [2] 103 % of control | [15] 102 % of control | [3] 95 % of control

CCOC(=O)C(N)CSC(=O)NC (stereo not given)
inactive: endpoint: mean survival time, dose: 12.5 mg/kg/injection, schedule: Q01DX009 (ip), vehicle: saline 95 % of control | endpoint: mean survival time, dose: 25.0 mg/kg/injection, schedule: Q01DX009 (ip), vehicle: saline 103 % of control and 107 % of control | [16] 116 % of control and 97 % of control | endpoint: mean survival time, dose: 100.0 mg/kg/injection, schedule: Q01DX009 (ip), vehicle: saline 123 % of control and 105 % of control | endpoint: mean survival time, dose: 200.0 mg/kg/injection, schedule: Q01DX009 (ip), vehicle: saline 116 % of control and 111 % of control | endpoint: mean survival time, dose: 800.0 mg/kg/injection, schedule: Q01DX009 (ip), vehicle: saline 94 % of control

O/N=C/c1ccc[nH]1
inactive: [6] 96 % of control | [8] 96 % of control | [17] 96 % of control

COC1OC(C(O)CO)C(O)C(O)C1O (stereo not given)
inactive: [9] 105 % of control | [6] 104 % of control | [10] 96 % of control | [8] 103 % of control | [11] 102 % of control | [17] 98 % of control

Cc1nc2ccccc2c(=O)n1-c1ccccc1Cl
inactive: [5] 100 % of control | [6] 100 % of control | [7] 105 % of control | [8] 102 % of control | [18] 117 % of control | [17] 112 % of control

COc1cc2cc[n+]3c(C)c4cc5c(cc4cc3c2cc1OC)OCO5 (tested in a mixture with another compound)
inactive: endpoint: mean survival time, dose: 25.0 mg/kg/injection, schedule: Q01DX009 (ip), vehicle: saline with Tween-80 120 % of control | endpoint: mean survival time, dose: 37.5 mg/kg/injection, schedule: Q01DX009 (ip), vehicle: saline with Tween-80 94 % of control | [12] 108 % of control | [16] 106 % of control | [1] 121 % of control | [2] 93 % of control

CC(=O)NCC1(c2ccccc2)CCN(CCCC(=O)c2ccc(F)cc2)CC1
inactive: endpoint: mean survival time, dose: 25.0 mg/kg/injection, schedule: Q04DX003 (ip), vehicle: Klucel (hydroxypropylcellulose) (HPC) 95 % of control | endpoint: mean survival time, dose: 50.0 mg/kg/injection, schedule: Q04DX003 (ip), vehicle: Klucel (hydroxypropylcellulose) (HPC) 100 % of control | endpoint: mean survival time, dose: 100.0 mg/kg/injection, schedule: Q04DX003 (ip), vehicle: Klucel (hydroxypropylcellulose) (HPC) 95 % of control

O=C1CN(c2ccccc2)C(=O)C1C(=O)Nc1ccc(Cl)c(Cl)c1 (stereo not given)
inactive: endpoint: median survival time, dose: 25.9 mg/kg/injection, schedule: Q01DX005 (ip), vehicle: saline with Tween-80 104 % of control | endpoint: median survival time, dose: 30.0 mg/kg/injection, schedule: Q01DX005 (ip), vehicle: saline with Tween-80 97 % of control | endpoint: median survival time, dose: 43.0 mg/kg/injection, schedule: Q01DX005 (ip), vehicle: saline with Tween-80 101 % of control and 104 % of control | endpoint: median survival time, dose: 43.2 mg/kg/injection, schedule: Q01DX005 (ip), vehicle: saline with Tween-80 98 % of control and 104 % of control | endpoint: median survival time, dose: 60.0 mg/kg/injection, schedule: Q01DX005 (ip), vehicle: saline with Tween-80 102 % of control

O=C(O)C(F)(F)F
inactive: [5] 100 % of control | [1] 102 % of control | [7] 103 % of control | [2] 96 % of control | [18] 100 % of control | [3] 102 % of control

CC1(C)CC(=O)C2(C)CCC3(CC2C1)OCCO3 (stereo not given)
inactive: [6] 96 % of control | [8] 96 % of control | [17] 96 % of control

O=Nn1c2ccccc2c2ccccc21
inactive: [19] 90 % of control | [20] 98 % of control | [21] 102 % of control

CC(CC(C)(C)C)O[Si](C)C1(C)CCCCC1 (stereo not given)
inactive: [6] 102 % of control | [8] 112 % of control | [17] 106 % of control

CC(C)[NH-].CC(C)[NH-].[Cl][Pt+2][Cl]
inactive: endpoint: mean survival time, dose: 1.56 mg/kg/injection, schedule: Q01DX009 (ip), vehicle: dextrose 119 % of control | endpoint: mean survival time, dose: 1.56 mg/kg/injection, schedule: Q01DX009 (ip), vehicle: other 112 % of control | endpoint: mean survival time, dose: 3.12 mg/kg/injection, schedule: Q01DX009 (ip), vehicle: other 118 % of control | endpoint: mean survival time, dose: 3.13 mg/kg/injection, schedule: Q04DX003 (ip), vehicle: distilled water + Tween-80 112 % of control | endpoint: mean survival time, dose: 6.25 mg/kg/injection, schedule: Q01DX009 (ip), vehicle: dextrose 100 % of control | endpoint: mean survival time, dose: 6.25 mg/kg/injection, schedule: Q04DX003 (ip), vehicle: distilled water + Tween-80 115 % of control | endpoint: mean survival time, dose: 12.5 mg/kg/injection, schedule: Q01DX009 (ip), vehicle: dextrose 98 % of control and 112 % of control | endpoint: mean survival time, dose: 50.0 mg/kg/injection, schedule: Q01DX009 (ip), vehicle: other 88 % of control | endpoint: mean survival time, dose: 50.0 mg/kg/injection, schedule: Q04DX003 (ip), vehicle: distilled water + Tween-80 118 % of control

OC(C/C(=N\Nc1ccccc1)c1ccc(Br)cc1)(C(F)(F)F)C(F)(F)F
inactive: [13] 96 % of control | [14] 95 % of control | [15] 97 % of control

O=C(NCc1ccccc1)c1ccccc1/C(=N/O)c1ccccc1
inactive: endpoint: mean survival time, dose: 100.0 mg/kg/injection, schedule: Q01DX001 (ip), vehicle: saline sonified 92 % of control | endpoint: mean survival time, dose: 200.0 mg/kg/injection, schedule: Q01DX001 (ip), vehicle: saline sonified 94 % of control | endpoint: mean survival time, dose: 400.0 mg/kg/injection, schedule: Q01DX001 (ip), vehicle: saline sonified 88 % of control

Nc1nc2nc(-c3ccccc3)c(-c3ccccc3)nc2c(=O)[nH]1
inactive: [5] 96 % of control | [7] 94 % of control | [18] 97 % of control

CO/C=C1\Cc2cc(OC)c(OC)cc2C1=O
inactive: [6] 100 % of control | [8] 94 % of control | [17] 102 % of control

CC1(CC(C)(C)c2ccccc2)OCCO1
inactive: endpoint: mean survival time, dose: 25.0 mg/kg/injection, schedule: Q01DX009 (ip), vehicle: Klucel (hydroxypropylcellulose) (HPC) 100 % of control | [19] 98 % of control | [20] 100 % of control | [21] 102 % of control | endpoint: mean survival time, dose: 400.0 mg/kg/injection, schedule: Q01DX009 (ip), vehicle: Klucel (hydroxypropylcellulose) (HPC) 100 % of control

COc1cc(C)ccc1Cl
inactive: [5] 101 % of control | [7] 118 % of control

COc1ccc(OC)c(NC(=O)Nc2ccc(C)c([N+](=O)[O-])c2)c1
inactive: [4] 98 % of control | [5] 94 % of control | [7] 94 % of control

CCCOC(=O)c1cncn1C(C)c1ccccc1 (stereo not given)
inactive: [9] 102 % of control

O=[N+]([O-])c1ccc(N/N=C(\CO)c2ccccc2)c([N+](=O)[O-])c1
inactive: [1] 109 % of control | [2] 97 % of control | [3] 108 % of control

CC(/C=N/NC(N)=S)Cc1ccc(C(C)C)cc1 (stereo not given)
inactive: endpoint: mean survival time, dose: 3.12 mg/kg/injection, schedule: Q01DX009 (ip), vehicle: acetone 104 % of control | endpoint: mean survival time, dose: 6.25 mg/kg/injection, schedule: Q01DX009 (ip), vehicle: acetone 104 % of control | endpoint: mean survival time, dose: 12.5 mg/kg/injection, schedule: Q01DX009 (ip), vehicle: acetone 104 % of control
